Experiment [1] relates to rabbit knee after ACL transection. The experiment can be described thus: ACL transection (ACLT) osteoarthritis model in the rabbit knee, continuous intra-articular infusion. Format: in vivo. The following applies: 8 weeks after ACLT; for chondro-degenerative pathology to the knee joint: 30 mM via Alzet pump 2.5 μl/hour intra-articular, vs saline-treated animals. Here is the method: The model used in this study is the transection of the anterior cruciate ligament (ACL) in the rabbit knee. ACL transection (ACLT) causes joint instability and subsequent development of degradative and osteoarthritis-like changes.
Female New Zealand White rabbits, 3.0-3.5 kg, were used and were randomly allocated into groups of 8 rabbits. Group A was the saline-treated control group; Group B was treated with 30 mM of the hexosaminidase inhibitor (2R,3R,4R,5R)-N-methyl-(2-acetamidomethyl-3,4-dihydroxy-5-hydroxymethyl)-pyrrolidine, which is also known as OPT-66. All the compounds were delivered by a 2ml Alzet osmotic pump (Alzet 2ML4, Alza, USA). The delivery rate from the pump was 2.5 μl/hour. All rabbits received ACLT surgery on the right knee.
All rabbits were anesthetized by an intramuscular injection of ketamine (35 mg/kg) and acepromazine (2.5 mg/kg). Knees were shaved and disinfected with Antibex (Vetoquinol S.A.) solution. A medial parapatellar incision was made on the skin and a medial arthrotomy was performed. The patella was dislocated laterally and the knee was placed in full flexion. The ACL was visualized and transected with a #15 blade. Complete transection was confirmed by a manual anterior drawer test. The joint was irrigated with sterile saline then closed. Before the closure of knee joint, an Alzet pump prefilled with compounds (either with saline or with the hexosaminidase inhibitor (2R,3R,4R,5R)-N-methyl-(2-acetamidomethyl-3,4-dihydroxy-5-hydroxymethyl)-pyrrolidine, also known as OPT-66, was implanted subcutaneously in the lower right abdomen of rabbits. The pump was connected by polyethylene tubing (ID: 0.58 mm), which was inserted into the right knee joint with its tip resting in the synovial space. The joint capsule was closed with a running suture and the tubing connecting the pump was also fixed into the tissue. The skin was closed with interrupted sutures. The Alzet pumps were replaced with fresh units at the end of the fourth week after the operation.
The animals were sacrificed eight (8) weeks after ACLT. The gross morphological changes of both knees, including joint swelling and joint fluid, were evaluated.
The grading of the joint swelling is as following: 0 (normal); 1 (mild), inflammation and/or proliferation of the joint capsule; 2 (moderate), thickening of joint capsule and/or inflammation of the synovium; 3 (severe) abundant inflammation of the synovium, swelling of the menisci or ligaments (anterior or posterior cruciate ligaments).

Experiment [2] deals with IL-1β-infused rabbit knee joint (tibial plateau cartilage). The experiment can be described thus: IL-1β-induced sGAG loss in rabbit knee cartilage, continuous intra-articular infusion. It counts as in vivo. Here is the method:
Female New Zealand White rabbits, 3.0-3.5 kg, were used and were randomly allocated into groups of 8 rabbits. Under aseptic conditions, 2 ml Alzet osmotic pumps (delivery flow rate: 10 μl/h, (Alzet 2ML1, Alza, USA)) were filled with IL-1β (1000 U/ml; R&D Systems, USA). Separate 2 ml Alzet pumps were filled with 30 mM of the hexosaminidase inhibitor (2R,3R,4R,5R)-N-methyl-(2-acetamidomethyl-3,4dihydroxy-5-hydroxymethyl)-pyrrolidine, also known as OPT-66, or with saline. The Alzet pumps were implanted subcutaneously in the lower abdomen of rabbits, and were connected by a polyethylene tubing (ID: 0.025 in) threaded subcutaneously to the left knee joint with their tips resting in the synovial space. The untreated contralateral knees of all animals served as negative controls. IL-1β and (2R,3R,4R,5R)-N-methyl-(2-acetamidomethyl-3,4-diydroxy-5-hydroxymethyl)-pyrrolidine were infused intra-articularly for 7 days. Immediately before surgery, and for 3 consecutive days thereafter, Marbocyl, 6 mg/kg/day, is administered (i.m.) to prevent infection. Animals were harvested on day 7. […]
Blyscan dye (Biocolor, USA) was added to each tube and vortexed. […] The absorbance of the sample was then observed at 656 nm using a spectrophotometer. […] The absorbance of the blank was subtracted from each sample. Results are expressed as micrograms of sGAG recovered per milligram wet weight of cartilage tissue.

A further experiment addresses hexosaminidase. The following applies: read-out: Ki against hexosaminidase; cited from earlier work.
In another experiment the test system is cultured chondrocytes. The following applies: cited from earlier work.

pKi: −log10 of the molar value.

As for `CC(=O)NCC1C(O)[C@H](O)C(CO)N1C` (stereo partly drawn) [OPT-66, (2R,3R,4R,5R)-N-methyl-(2-acetamidomethyl-3,4-dihydroxy-5-hydroxymethyl)-pyrrolidine], the “chondro-degenerative pathology to the knee joint” value in experiment [1] was “consistently less chondro-degenerative pathology”; in experiment [1] (listed as specific hexosaminidase inhibitor) it was “chondroprotective benefit”. The “severity of femur lesion scores” value in experiment [1] (30 mM via Alzet pump, vs saline-treated animals (FIG. 1)) was “statistically significant decrease”. Also, in experiment [1] (30 mM via Alzet pump, vs saline-treated animals (FIG. 2)), the “severity of tibia lesion scores” value is “statistically significant decrease”. Besides, in experiment [1] (30 mM via Alzet pump, vs saline-treated animals (FIG. 3)), the joint swelling grading entry is reported as “trend towards decreased joint-swelling”. For the same compound, in experiment [1] (30 mM via Alzet pump, vs saline-treated animals (FIG. 4)), the “synovial (joint) fluid grading” value was “normal levels of fluid in the knee joint”. Further, in experiment [2] (IL-1β 1000 U/ml plus 30 mM inhibitor infused intra-articularly for 7 days (FIG. 5)), the “amount of recoverable sGAG per wet weight of left tibial plateau cartilage” value is given as “approximately 41 μg/mg”. In addition, in experiment [2] (IL-1β plus 30 mM inhibitor infused intra-articularly for 7 days), the “increase of recoverable sGAG over saline-treated knees” value came out at 24%. Moreover, on hexosaminidase, the pKi (as a rule, the negative decadic logarithm of the Ki, by convention in mol/L) is 7.62. Moreover, the “cytokine-induced loss of GAGs” value with cultured chondrocytes is “preventing cytokine-induced loss of GAGs”.

(Values after US20070197471A1, “Treatment of degenerative cartilage conditions in a mammal with Glycosidasc Inhibitors” (Optimer Pharmaceuticals, Inc., priority 2004, published 2007).)
